According to ChEMBL document CHEMBL3507680, “University of Dundee, Gates Library screen for HepG2 cell viability”:

Assay: Human HepG2 cell viability assay in 384 well format
Format: toxicity, cell-based
Parameters: dose 125 nL, time 70.5 hour; concentration not given beside the values
Details: HepG2 cells, read-out: Inhibition

Row | Structure (SMILES) | cytotoxicity at 70.5 h [%]
1 | Cc1nnsc1C(=O)N1CCC2(CC1)c1nc[nH]c1CCN2CC(C)C | -2.79
2 | c1ccc(OCC2CC2)c(CNC2CCc3ncnn3C2)c1 (stereo not drawn) | -7.19
3 | c1cncc(COc2ccccc2CNC2CCc3ncnn3C2)c1 (stereo not drawn) | -5.98
4 | COc1cc(C)nc(N2CCN(C(=O)CN(C)C(C)C)CC2)n1 | 29
5 | NC(=O)c1cccc(CN2CCc3c(ncn3C3CC3)C2)c1 | 23.7
6 | CN(Cc1noc(C2CC2)n1)C1CCN(Cc2cccc(F)c2F)C1 (stereo not drawn) | 15.9
7 | CN(Cc1cccnc1)C1CCCN(Cc2noc(C3CC3)n2)C1 (stereo not drawn) | 24.6
8 | CCCc1cc(C(=O)NCCN2CCCS2(=O)=O)[nH]n1 | -7.48
9 | Cc1ccc(-c2cc(C(=O)NCCN3CCCS3(=O)=O)[nH]n2)o1 | -14.9
10 | OCCN1CCC(CNCc2ccccc2OC(F)(F)F)CC1 | -7.57
11 | COc1cc(C)nc(N2CCN(C(=O)CSC)CC2)n1 | -11.8
12 | O=C1C(NCc2nnc3n2CCCC3)CCN1c1ccccc1Cl (stereo not drawn) | 9.28
13 | O=C(NCc1nn(-c2ccccc2)c2c1CCC2)N1CCCC(O)C1 (stereo not drawn) | -12.1
14 | O=C(NCc1nn(-c2ccccc2)c2c1CCC2)NC1CCC(O)CC1 (stereo not drawn) | -8.01
15 | NC(=O)NCCC(=O)NCc1nn(-c2ccccc2)c2c1CCC2 | -16.4
16 | Cc1noc(C)c1CNC(=O)N1CCC(Cc2cnn(C)c2)C1 (stereo not drawn) | -3.98
17 | CC(O)CN1CCC(CNCc2cccc(OC(F)(F)F)c2)CC1 (stereo not drawn) | 5.77
18 | CCOc1ccccc1CNCC1CCN(CC(C)O)CC1 (stereo not drawn) | -1.15
19 | O=C(NCc1cc[nH]n1)NCC(c1ccccc1)N1CCOCC1 (stereo not drawn) | 8.77
20 | Cc1cnn(CC2CCCCN2Cc2cc(C)no2)c1 (stereo not drawn) | -8.3

Row | Structure (SMILES) | cytotoxicity at 70.5 h [%]
21 | CCc1nccn1C1CCCN(C(=O)CCOCC(F)(F)F)C1 (stereo not drawn) | -14
22 | CCN(CC)CC(=O)N1CCN(c2nc(C)cc(OC)n2)CC1 | -0.607
23 | Cc1cnn(CC2CCCN2Cc2cc(C)on2)c1 (stereo not drawn) | -4.61
24 | Cc1cc(C)n(CC2CCCN2CCCS(C)(=O)=O)n1 (stereo not drawn) | -7.95
25 | CCn1ccnc1CN1CCCN(C(=O)c2scnc2C)CC1 | -11.5
26 | COc1ccc(NC(=O)NC(C)Cc2ccco2)cn1 (stereo not drawn) | -11.4
27 | CC(Cc1ccco1)NC(=O)Nc1ccc(N(C)C)nc1 (stereo not drawn) | -7.91
28 | CN1CCN(c2cc(CNC(=O)c3ccc(Cl)o3)ccn2)CC1 | -3.02
29 | NC(=O)Cn1cc(NC(=O)N2CCN(c3ccc(F)cc3)CC2)cn1 | 8.67
30 | NC(=O)Cn1cc(NC(=O)N2CCCCCC2)cn1 | -11.1
31 | N#Cc1ccsc1NC(=O)CN1CCOC(Cn2cccn2)C1 (stereo not drawn) | 11
32 | Cc1cnn(CC2CN(CC(=O)Nc3cc(C)no3)CCO2)c1 (stereo not drawn) | -9.53
33 | Cc1nc2cc(=O)[nH]n2c(C)c1CC(=O)NCc1ccoc1 | -1.36
34 | CCc1ccsc1C(=O)N1CCCN(Cc2nccn2CC)CC1 | 5.97
35 | Cc1n[nH]c(C2CN(C(=O)CCc3cscn3)CCO2)n1 (stereo not drawn) | -1.63
36 | CC(NS(C)(=O)=O)C(=O)N1CCCN(Cc2cscn2)CC1 (stereo not drawn) | -1.86
37 | Cc1nc(C)n(CC2CCCN2CCc2ccncc2)n1 (stereo not drawn) | 18.1
38 | CC(OCC1CC1)C(=O)N1CCCN(Cc2cscn2)CC1 (stereo not drawn) | 1.88
39 | CNc1cc(N2CCCC2CNCc2cnc(C)s2)ncn1 (stereo not drawn) | 2.89
40 | CNc1cc(N2CCCC2CNCc2cscn2)ncn1 (stereo not drawn) | 1.05

Row | Structure (SMILES) | cytotoxicity at 70.5 h [%]
41 | CCc1nnsc1C(=O)N1CCCC(n2nc(C)nc2C)C1 (stereo not drawn) | -3.17
42 | Cc1ncc(C(=O)N2CCCC(n3nc(C)nc3C)C2)c(C(C)C)n1 (stereo not drawn) | -4.64
43 | CCc1ncncc1C(=O)N1CCCC(n2nc(C)nc2C)C1 (stereo not drawn) | -1.23
44 | Cc1cc(C)n(CC2CCCN2CCc2ccccn2)n1 (stereo not drawn) | 1.45
45 | Cc1ccc(C)n1C(C)C(=O)N1CCCN(Cc2cscn2)CC1 (stereo not drawn) | -0.61
46 | Cc1cnc(CN2CCOC(Cn3nc(C)cc3C)C2)cn1 (stereo not drawn) | 13.7
47 | Cc1nc(C2CCCN2CC(=O)NCCOc2ccc(F)cc2)no1 (stereo not drawn) | 47.6
48 | O=C(NCc1ccncc1)Nc1cc(C(F)(F)F)c[nH]c1=O | -2.18
49 | Cc1cc(C)c(CNC(=O)NCC2COCCO2)c(=O)[nH]1 (stereo not drawn) | -4.78
50 | Cn1cc(CCNCc2cc(Cl)c3c(c2)OCCO3)cn1 | -2.02
51 | Cc1cc(C)n(CC2CN(Cc3nnc(C)o3)CCO2)n1 (stereo not drawn) | -3.59
52 | CCc1nnc2n1CCN(C(=O)c1cc(Cl)c[nH]1)C2 | -1.1
53 | O=C(c1ccccc1N1CCOCC1)N1CCCC(n2ccnc2)C1 (stereo not drawn) | -6.72
54 | Cc1ccc(NC2CCN(C(=O)c3ccc(C)o3)CC2)nn1 | -0.446
55 | Cc1ccc(NC2CCN(C(=O)Cc3c(C)noc3C)CC2)nn1 | -2.99
56 | O=C(c1ccc(N2CCOCC2)nc1)N1CCCC(n2ccnc2)C1 (stereo not drawn) | -3.02
57 | Cc1ccc(NC2CCN(C(=O)c3cc(C)no3)CC2)nn1 | 0.395
58 | COc1ccc(CN2CCC3(CC(=O)N(c4cccc(F)c4)C3)C2)cc1 (stereo not drawn) | -10.4
